Laboratory results reported in patent US6339042B1, “Herbicidal N-cyclohexadienyl heteroaryloxyacetamides” (American Cyanamid Co., priority 1999, dated 2002).

Legend:
Settings in all cases: three weeks after treatment
Galium aparine [1] = assay: Post-emergence herbicidal evaluation, GALAP
Amaranthus tuberculatus [2] = assay: Post-emergence herbicidal evaluation, AMATA; format: in vivo
Hordeum vulgare [3] = assay: Pre-emergence herbicidal evaluation, HORVW; format: in vivo
Text: (§1) The treated pots are then placed on greenhouse benches, watered and cared for in accordance with conventional greenhouse procedures.

Triticum aestivum [4] = assay: Post-emergence herbicidal evaluation, TRZAW
Triticum aestivum [5] = assay: Pre-emergence herbicidal evaluation, TRZAW; format: in vivo
Text: as §1

Oryza sativum [6] = assay: Pre-emergence herbicidal evaluation, ORYSA; format: in vivo
Text: as §1

Echinochloa crus-galli [7] = assay: Post-emergence herbicidal evaluation, ECHCG
Galium aparine [8] = assay: Pre-emergence herbicidal evaluation, GALAP; format: in vivo
Text: as §1

Glycine max [9] = assay: Post-emergence herbicidal evaluation, GLXMA
Experimental: (§2) Each pot is examined three weeks after treatment and phytotoxicity is assessed according to the rating system set forth below.
(§3) These acetone solutions are diluted with water and the resulting formulations applied at dosage levels equivalent of about 0.4 to 0.1 kg per hectare of test compound per pot. After spraying the plants are placed on greenhouse benches and are cared for in the usual manner, commensurate with conventional greenhouse practices.

Amaranthus tuberculatus [10] = assay: Pre-emergence herbicidal evaluation, AMATA; format: in vivo
Text: as §1

Zea mays [11] = assay: Pre-emergence herbicidal evaluation, ZEAMX; format: in vivo
Text: as §1

Hordeum vulgare [12] = assay: Post-emergence herbicidal evaluation, HORVW
Alopecurus myosuroides [13] = assay: Pre-emergence herbicidal evaluation, ALOMY; format: in vivo
Text: as §1

Lolium perenne [14] = assay: Pre-emergence herbicidal evaluation, LOLPE; format: in vivo
Text: as §1

Glycine max [15] = assay: Pre-emergence herbicidal evaluation, GLXMA; format: in vivo
Text: as §1

Setaria viridis [16] = assay: Post-emergence herbicidal evaluation, SETVI
Oryza sativum [17] = assay: Post-emergence herbicidal evaluation, ORYSA
Echinochloa crus-galli [18] = assay: Pre-emergence herbicidal evaluation, ECHCG; format: in vivo
Text: as §1

Zea mays [19] = assay: Post-emergence herbicidal evaluation, ZEAMX
Lolium perenne [20] = assay: Post-emergence herbicidal evaluation, LOLPE
Alopecurus myosuroides [21] = assay: Post-emergence herbicidal evaluation, ALOMY
Experimental: (§4) The compounds of the invention are tested for pre- and post-emergence herbicidal activity.
as §2, §3

Apera spica venti [22] = assay: Post-emergence herbicidal evaluation, APESV
Experimental: as §4, §2, §3

Setaria viridis [23] = assay: Pre-emergence herbicidal evaluation, SETVI; format: in vivo
Text: as §1

Apera spica venti [24] = assay: Pre-emergence herbicidal evaluation, APESV; format: in vivo
Text: as §1

CCN(C(=O)COc1nnc(C(F)(F)F)s1)C1=CC(C)(C)CC(C)=C1 [Example 1]
phytotoxicity rating GALAP (Galium aparine [1]; 0.100 kg/ha): 0 (0 - No effect) | phytotoxicity rating GALAP (Galium aparine [1]; 0.200 kg/ha): 0 (0 - No effect) | phytotoxicity rating GALAP (Galium aparine [1]; 0.400 kg/ha): 1 (1 - Trace effect) | phytotoxicity rating AMATA (Amaranthus tuberculatus [2]; 0.100 kg/ha): 0 (0 - No effect) | phytotoxicity rating AMATA (Amaranthus tuberculatus [2]; 0.200 kg/ha): 0 (0 - No effect) | phytotoxicity rating AMATA (Amaranthus tuberculatus [2]; 0.400 kg/ha): 0 (0 - No effect) | phytotoxicity rating HORVW (Hordeum vulgare [3]; 0.100 kg/ha): 2 (2 - Slight effect) | phytotoxicity rating HORVW (Hordeum vulgare [3]; 0.200 kg/ha): 2 (2 - Slight effect) | phytotoxicity rating HORVW (Hordeum vulgare [3]; 0.400 kg/ha): 4 (4 - Injury) | phytotoxicity rating HORVW (Hordeum vulgare [3]; 0.800 kg/ha): 4 (4 - Injury) | phytotoxicity rating TRZAW (Triticum aestivum [4]; 0.100 kg/ha): 0 (0 - No effect) | phytotoxicity rating TRZAW (Triticum aestivum [4]; 0.200 kg/ha): 0 (0 - No effect) | phytotoxicity rating TRZAW (Triticum aestivum [4]; 0.400 kg/ha): 1 (1 - Trace effect) | phytotoxicity rating TRZAW (Triticum aestivum [5]; 0.100 kg/ha): 0 (0 - No effect) | phytotoxicity rating TRZAW (Triticum aestivum [5]; 0.200 kg/ha): 0 (0 - No effect) | phytotoxicity rating TRZAW (Triticum aestivum [5]; 0.400 kg/ha): 2 (2 - Slight effect) | phytotoxicity rating TRZAW (Triticum aestivum [5]; 0.800 kg/ha): 4 (4 - Injury) | phytotoxicity rating ORYSA (Oryza sativum [6]; 0.100 kg/ha): 0 (0 - No effect) | phytotoxicity rating ORYSA (Oryza sativum [6]; 0.200 kg/ha): 0 (0 - No effect) | phytotoxicity rating ORYSA (Oryza sativum [6]; 0.400 kg/ha): 3 (3 - Moderate effect) | phytotoxicity rating ECHCG (Echinochloa crus-galli [7]; 0.100 kg/ha): 2 (2 - Slight effect) | phytotoxicity rating ECHCG (Echinochloa crus-galli [7]; 0.200 kg/ha): 4 (4 - Injury) | phytotoxicity rating ECHCG (Echinochloa crus-galli [7]; 0.400 kg/ha): 7 (7 - Good herbicidal effect) | phytotoxicity rating GALAP (Galium aparine [8]; 0.100 kg/ha): 0 (0 - No effect) | phytotoxicity rating GALAP (Galium aparine [8]; 0.200 kg/ha): 4 (4 - Injury) | phytotoxicity rating GALAP (Galium aparine [8]; 0.400 kg/ha): 4 (4 - Injury) | phytotoxicity rating GALAP (Galium aparine [8]; 0.800 kg/ha): 4 (4 - Injury) | phytotoxicity rating GLXMA (Glycine max [9]; 0.100 kg/ha): 4 (4 - Injury) | phytotoxicity rating GLXMA (Glycine max [9]; 0.200 kg/ha): 5 (5 - Definite injury) | phytotoxicity rating GLXMA (Glycine max [9]; 0.400 kg/ha): 4 (4 - Injury) | phytotoxicity rating AMATA (Amaranthus tuberculatus [10]; 0.100 kg/ha): 0 (0 - No effect) | phytotoxicity rating AMATA (Amaranthus tuberculatus [10]; 0.200 kg/ha): 3 (3 - Moderate effect) | phytotoxicity rating AMATA (Amaranthus tuberculatus [10]; 0.400 kg/ha): 9 (9 - Complete kill) | phytotoxicity rating AMATA (Amaranthus tuberculatus [10]; 0.800 kg/ha): 9 (9 - Complete kill) | phytotoxicity rating ZEAMX (Zea mays [11]; 0.100 kg/ha): 0 (0 - No effect) | phytotoxicity rating ZEAMX (Zea mays [11]; 0.200 kg/ha): 0 (0 - No effect) | phytotoxicity rating ZEAMX (Zea mays [11]; 0.400 kg/ha): 2 (2 - Slight effect) | phytotoxicity rating ZEAMX (Zea mays [11]; 0.800 kg/ha): 4 (4 - Injury) | phytotoxicity rating HORVW (Hordeum vulgare [12]; 0.100 kg/ha): 0 (0 - No effect) | phytotoxicity rating HORVW (Hordeum vulgare [12]; 0.200 kg/ha): 0 (0 - No effect) | phytotoxicity rating HORVW (Hordeum vulgare [12]; 0.400 kg/ha): 0 (0 - No effect) | phytotoxicity rating ALOMY (Alopecurus myosuroides [13]; 0.100 kg/ha): 2 (2 - Slight effect) | phytotoxicity rating ALOMY (Alopecurus myosuroides [13]; 0.200 kg/ha): 3 (3 - Moderate effect) | phytotoxicity rating ALOMY (Alopecurus myosuroides [13]; 0.400 kg/ha): 9 (9 - Complete kill) | phytotoxicity rating ALOMY (Alopecurus myosuroides [13]; 0.800 kg/ha): 7 (7 - Good herbicidal effect) | phytotoxicity rating LOLPE (Lolium perenne [14]; 0.100 kg/ha): 2 (2 - Slight effect) | phytotoxicity rating LOLPE (Lolium perenne [14]; 0.200 kg/ha): 3 (3 - Moderate effect) | phytotoxicity rating LOLPE (Lolium perenne [14]; 0.400 kg/ha): 9 (9 - Complete kill) | phytotoxicity rating LOLPE (Lolium perenne [14]; 0.800 kg/ha): 9 (9 - Complete kill) | phytotoxicity rating GLXMA (Glycine max [15]; 0.100 kg/ha): 0 (0 - No effect) | phytotoxicity rating GLXMA (Glycine max [15]; 0.200 kg/ha): 0 (0 - No effect) | phytotoxicity rating GLXMA (Glycine max [15]; 0.400 kg/ha): 2 (2 - Slight effect) | phytotoxicity rating GLXMA (Glycine max [15]; 0.800 kg/ha): 2 (2 - Slight effect) | phytotoxicity rating SETVI (Setaria viridis [16]; 0.100 kg/ha): 0 (0 - No effect) | phytotoxicity rating SETVI (Setaria viridis [16]; 0.200 kg/ha): 2 (2 - Slight effect) | phytotoxicity rating SETVI (Setaria viridis [16]; 0.400 kg/ha): 3 (3 - Moderate effect) | phytotoxicity rating ORYSA (Oryza sativum [17]; 0.100 kg/ha): 0 (0 - No effect) | phytotoxicity rating ORYSA (Oryza sativum [17]; 0.200 kg/ha): 0 (0 - No effect) | phytotoxicity rating ORYSA (Oryza sativum [17]; 0.400 kg/ha): 3 (3 - Moderate effect) | phytotoxicity rating ECHCG (Echinochloa crus-galli [18]; 0.100 kg/ha): 4 (4 - Injury) | phytotoxicity rating ECHCG (Echinochloa crus-galli [18]; 0.200 kg/ha): 8 (8 - Approaching complete kill) | phytotoxicity rating ECHCG (Echinochloa crus-galli [18]; 0.400 kg/ha): 9 (9 - Complete kill) | phytotoxicity rating ECHCG (Echinochloa crus-galli [18]; 0.800 kg/ha): 9 (9 - Complete kill) | phytotoxicity rating ZEAMX (Zea mays [19]; 0.100 kg/ha): 0 (0 - No effect) | phytotoxicity rating ZEAMX (Zea mays [19]; 0.200 kg/ha): 0 (0 - No effect) | phytotoxicity rating ZEAMX (Zea mays [19]; 0.400 kg/ha): 0 (0 - No effect) | phytotoxicity rating LOLPE (Lolium perenne [20]; 0.100 kg/ha): 6 (6 - Herbicidal effect) | phytotoxicity rating LOLPE (Lolium perenne [20]; 0.200 kg/ha): 8 (8 - Approaching complete kill) | phytotoxicity rating LOLPE (Lolium perenne [20]; 0.400 kg/ha): 8 (8 - Approaching complete kill) | phytotoxicity rating ALOMY (Alopecurus myosuroides [21]; 0.100 kg/ha): 6 (6 - Herbicidal effect) | phytotoxicity rating ALOMY (Alopecurus myosuroides [21]; 0.200 kg/ha): 6 (6 - Herbicidal effect) | phytotoxicity rating ALOMY (Alopecurus myosuroides [21]; 0.400 kg/ha): 8 (8 - Approaching complete kill) | phytotoxicity rating APESV (Apera spica venti [22]; 0.100 kg/ha): 5 (5 - Definite injury) | phytotoxicity rating APESV (Apera spica venti [22]; 0.200 kg/ha): 8 (8 - Approaching complete kill) | phytotoxicity rating APESV (Apera spica venti [22]; 0.400 kg/ha): 8 (8 - Approaching complete kill) | phytotoxicity rating SETVI (Setaria viridis [23]; 0.100 kg/ha): 4 (4 - Injury) | phytotoxicity rating SETVI (Setaria viridis [23]; 0.200 kg/ha): 7 (7 - Good herbicidal effect) | phytotoxicity rating SETVI (Setaria viridis [23]; 0.400 kg/ha): 8 (8 - Approaching complete kill) | phytotoxicity rating SETVI (Setaria viridis [23]; 0.800 kg/ha): 8 (8 - Approaching complete kill) | phytotoxicity rating APESV (Apera spica venti [24]; 0.100 kg/ha): 6 (6 - Herbicidal effect) | phytotoxicity rating APESV (Apera spica venti [24]; 0.200 kg/ha): 8 (8 - Approaching complete kill) | phytotoxicity rating APESV (Apera spica venti [24]; 0.400 kg/ha): 9 (9 - Complete kill) | phytotoxicity rating APESV (Apera spica venti [24]; 0.800 kg/ha): 9 (9 - Complete kill)
